# In ChEMBL document CHEMBL6177994 (J Med Chem, 2025):
# Calls of active or inactive are those of the source. No cut-off for these calls is given here.
# What was measured:
# [1] = Half life in male Sprague-Dawley rat at 1 mg/kg, iv measured up to 24 hrs by LC-MS/MS analysis; assay type: ADME, organism-based; conditions: in vivo
# [2] = Drug concentration in male Balb/c nude mouse tumor xenografted with human PK-59 cells at 10 mg/kg, iv administered as single dose measured after 6 hrs by LC-MS/MS analysis; assay type: ADME, organism-based, Neoplasm; conditions: read-out: Ct
# [3] = Inhibition of ERK phosphorylation in human AGS cells harbouring KRAS G12D mutant measured after 24 hrs; assay type: cell-based
# PK-59 = test: PROTAC activity at CRBN/KRAS G12D mutant in human PK-59 cells assessed as induction of KRAS G12D mutant degradation 0.01 to 100 nM measured after 24 hrs by immunoblot analysis; assay type: cell-based; conditions: dose 0.01-100 nM
# [4] = test system: Protein cereblon/GTPase KRas (Homo sapiens), P01116+Q96SW2 [G12D]; test: PROTAC activity at CRBN/KRAS G12D mutant in human ASPC1 cells assessed as induction of KRAS G12D mutant degradation 0.01 to 100 nM measured after 24 hrs by immunoblot analysis relative to control; assay type: cell-based; conditions: dose 0.01-100 nM
# [5] = test system: Protein cereblon/GTPase KRas (Homo sapiens), P01116+Q96SW2 [G12D]; test: PROTAC activity at CRBN/KRAS G12D mutant in human ASPC1 cells assessed as induction of KRAS G12D mutant degradation at 5 nM preincubated with MG132 followed by compound addition and measured after 24 hrs by Western blot analysis; assay type: cell-based
# [6] = test system: Protein cereblon/GTPase KRas (Homo sapiens), P01116+Q96SW2 [G12D]; test: PROTAC activity at CRBN/KRAS G12D mutant in human ASPC1 cells assessed as induction of KRAS G12D mutant degradation at 50 nM measured after 24 hrs by immunoblot analysis relative to control; assay type: cell-based
# Cytochrome P450 2C19 = Cytochrome P450 2C19 (Homo sapiens, UniProt P33261); test: Inhibition of CYP2C19 in human liver microsomes using S-mephenytoin as substrate at 10 uM incubated for 15 mins in presence of NADPH by LC/MS analysis; assay type: ADME, Microsome; conditions: 0.25 h
# [7] = Inhibition of ERK phosphorylation in human GP2d cells harbouring KRAS G12D mutant measured after 24 hrs; assay type: cell-based
# A-427 [8] = test: Antitumor activity against human A-427 cells harbouring KRAS G12D mutant xenografted in female Balb/c nude mouse model assessed as tumor regression at 1 to 10 mg/kg, iv QW administered weekly and measured after 28 days relative to control; assay type: functional; conditions: dose 1-10 mg/kg, time 28 day
# [9] = molecular target: Protein cereblon/Eukaryotic peptide chain release factor GTP-binding subunit ERF3A (Homo sapiens) (UniProt Q96SW2+P15170); test: PROTAC activity at CRBN/GSPT1 in human ASPC1 cells assessed as induction of GSPT1 degradation at 10 to 1000 nM measured after 24 hrs by immunoblot analysis; assay type: cell-based; conditions: dose 10-1000 nM
# GTPase KRas = GTPase KRas (Homo sapiens, UniProt P01116, G12D); test: Binding affinity to 6 His-tagged GDP-loaded human KRAS G12D mutant assessed as GDP-GTP exchange preincubated for 30 mins followed by GTP addition for 30 mins by HTRF method
# [10] = Antitumor activity against human PK-59 cells xenografted in female Balb/c nude mouse model assessed as tumor growth inhibition at 0.1 mg/kg, iv QW measured after 28 days relative to control; assay type: functional; conditions: PK-59, 672 h, time 28 day, read-out: TGI
# Cytochrome P450 3A4 = Cytochrome P450 3A4 (Homo sapiens, UniProt P08684); test: Inhibition of CYP3A4 in human liver microsomes using testosterone as substrate at 10 uM incubated for 15 mins in presence of NADPH by LC/MS analysis; assay type: ADME, Microsome; conditions: 0.25 h
# [11] = test system: Protein cereblon/GTPase KRas (Homo sapiens), P01116+Q96SW2 [G12D]; test: In vivo PROTAC activity at CRBN/KRAS G12D mutant in male Balb/c nude mouse xenografted with human PK-59 cells assessed as reduction in DUSP4 level in tumor at 10 mg/kg, iv measured after 6 hrs relative to control; assay type: functional, organism-based; set-up: scale not given: the % may be the effect or the level left
# [12] = Stability in human plasma assessed as half life at 1 uM measured up to 120 mins by LC-MS/MS analysis; assay type: ADME, cell-free
# GP2d = test: PROTAC activity at CRBN/KRAS G12D mutant in human GP2d cells assessed as induction of KRAS G12D mutant degradation 0.01 to 100 nM measured after 24 hrs by immunoblot analysis; assay type: cell-based; conditions: dose 0.01-100 nM
# [13] = Inhibition of ERK phosphorylation in human ASPC1 cells harbouring KRAS G12D mutant measured after 24 hrs; assay type: cell-based; conditions: ASPC1, 24 h
# HPAC = test: Antiproliferative activity against human HPAC cells harbouring KRAS G12D mutant assessed as inhibition of cell growth measured after 72 hrs by Cell titer glo method; assay type: functional, cell-based
# [14] = Metabolic stability in rat liver microsomes assessed as half life at 1 uM preincubated for 3 mins with NADPH and measured up to 60 mins by LC-MS/MS analysis; assay type: ADME, Microsome; conditions: time < 63 min
# [15] = Stability in mouse plasma assessed as half life at 1 uM measured up to 120 mins by LC-MS/MS analysis; assay type: ADME, cell-free
# [16] = Toxicity in female Balb/c nude mouse xenografted with human GP2d cells assessed as change in body weight at 1 to 10 mg/kg, iv QW measured after 28 days; assay type: organism-based; conditions: in vivo, 672 h, dose 1-10 mg/kg, time 28 day
# A-427 [17] = test: Antiproliferative activity against human A-427 cells harbouring KRAS G12D mutant assessed as inhibition of cell growth measured after 72 hrs by Cell titer glo method; assay type: functional, cell-based
# [18] = Stability in human hepatocyte assessed as half life at 100 uM measured up to 120 mins by LC-MS/MS analysis; assay type: ADME, cell-based; conditions: hepatocytes
# [19] = Clearance in male ICR mouse at 1 mg/kg, iv measured up to 24 hrs by LC-MS/MS analysis; assay type: ADME, organism-based; conditions: in vivo
# [20] = AUC (0 to t) in male cynomolgus monkey at 1 mg/kg, iv measured up to 24 hrs by LC-MS/MS analysis; assay type: ADME, organism-based, Macaca fascicularis; conditions: in vivo
# [21] = Metabolic stability in rat liver microsomes assessed as intrinsic clearance at 1 uM preincubated for 3 mins with NADPH and measured up to 60 mins by LC-MS/MS analysis; assay type: ADME, Microsome; conditions: time < 63 min, read-out: CLH
# [22] = Clearance in male cynomolgus monkey at 1 mg/kg, iv measured up to 24 hrs by LC-MS/MS analysis; assay type: ADME, organism-based, Macaca fascicularis; conditions: in vivo
# [23] = Volume of distribution at steady state in male ICR mouse at 1 mg/kg, iv measured up to 24 hrs by LC-MS/MS analysis; assay type: ADME, organism-based; conditions: in vivo, read-out: Vdss
# [24] = AUC (0 to t) in male Sprague-Dawley rat at 1 mg/kg, iv measured up to 24 hrs by LC-MS/MS analysis; assay type: ADME, organism-based; conditions: in vivo
# [25] = AUC (0 to t) in male ICR mouse at 1 mg/kg, iv measured up to 24 hrs by LC-MS/MS analysis; assay type: ADME, organism-based; conditions: in vivo
# [26] = Drug concentration in male Balb/c nude mouse tumor xenografted with human GP2d cells at 10 mg/kg, iv administered as single dose measured after 7 days by LC-MS/MS analysis; assay type: ADME, organism-based, Neoplasm; conditions: time 7 day, read-out: Ct
# PSN1 = test: Antiproliferative activity against human PSN1 cells harbouring KRAS G12R mutant assessed as inhibition of cell growth measured after 72 hrs by Cell titer glo method; assay type: functional, cell-based
# Protein cereblon/GTPase KRas (Homo sapiens), P01116+Q96SW2 [G12D], sequence (P01116 whole entry G12D): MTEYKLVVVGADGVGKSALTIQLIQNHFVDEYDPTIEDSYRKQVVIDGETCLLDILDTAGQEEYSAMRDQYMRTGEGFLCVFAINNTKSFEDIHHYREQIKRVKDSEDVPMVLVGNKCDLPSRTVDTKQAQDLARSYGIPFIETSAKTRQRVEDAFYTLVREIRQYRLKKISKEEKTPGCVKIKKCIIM
# Protein cereblon/GTPase KRas (Homo sapiens), P01116+Q96SW2 [G12D], sequence (Q96SW2 whole entry partner): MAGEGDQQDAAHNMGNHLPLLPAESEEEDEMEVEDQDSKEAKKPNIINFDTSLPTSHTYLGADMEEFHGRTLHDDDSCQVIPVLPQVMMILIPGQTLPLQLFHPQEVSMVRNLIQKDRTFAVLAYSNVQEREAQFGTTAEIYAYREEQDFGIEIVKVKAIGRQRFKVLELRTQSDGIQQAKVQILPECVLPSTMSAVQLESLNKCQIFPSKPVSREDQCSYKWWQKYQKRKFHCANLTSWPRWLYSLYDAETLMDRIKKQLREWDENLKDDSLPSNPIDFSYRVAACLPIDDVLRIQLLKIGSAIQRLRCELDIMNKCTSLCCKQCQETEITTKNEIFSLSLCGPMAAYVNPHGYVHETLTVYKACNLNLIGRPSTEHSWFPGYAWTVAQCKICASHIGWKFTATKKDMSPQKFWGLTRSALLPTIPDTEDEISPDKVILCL
# Cytochrome P450 2C19, sequence (P33261 whole entry): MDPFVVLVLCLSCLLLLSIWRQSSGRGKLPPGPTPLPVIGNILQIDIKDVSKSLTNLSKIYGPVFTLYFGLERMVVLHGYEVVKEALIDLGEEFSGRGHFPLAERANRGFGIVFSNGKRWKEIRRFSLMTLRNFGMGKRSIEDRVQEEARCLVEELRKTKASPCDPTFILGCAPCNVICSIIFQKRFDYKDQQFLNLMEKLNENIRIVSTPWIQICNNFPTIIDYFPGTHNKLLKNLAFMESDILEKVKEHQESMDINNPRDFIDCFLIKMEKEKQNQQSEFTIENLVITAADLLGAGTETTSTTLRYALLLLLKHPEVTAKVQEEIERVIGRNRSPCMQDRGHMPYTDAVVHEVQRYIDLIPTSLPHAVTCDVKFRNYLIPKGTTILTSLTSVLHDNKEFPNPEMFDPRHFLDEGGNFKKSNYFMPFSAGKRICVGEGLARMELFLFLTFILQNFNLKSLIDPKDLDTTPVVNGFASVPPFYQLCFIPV
# Protein cereblon/Eukaryotic peptide chain release factor GTP-binding subunit ERF3A (Homo sapiens), sequence (P15170 whole entry, looked up): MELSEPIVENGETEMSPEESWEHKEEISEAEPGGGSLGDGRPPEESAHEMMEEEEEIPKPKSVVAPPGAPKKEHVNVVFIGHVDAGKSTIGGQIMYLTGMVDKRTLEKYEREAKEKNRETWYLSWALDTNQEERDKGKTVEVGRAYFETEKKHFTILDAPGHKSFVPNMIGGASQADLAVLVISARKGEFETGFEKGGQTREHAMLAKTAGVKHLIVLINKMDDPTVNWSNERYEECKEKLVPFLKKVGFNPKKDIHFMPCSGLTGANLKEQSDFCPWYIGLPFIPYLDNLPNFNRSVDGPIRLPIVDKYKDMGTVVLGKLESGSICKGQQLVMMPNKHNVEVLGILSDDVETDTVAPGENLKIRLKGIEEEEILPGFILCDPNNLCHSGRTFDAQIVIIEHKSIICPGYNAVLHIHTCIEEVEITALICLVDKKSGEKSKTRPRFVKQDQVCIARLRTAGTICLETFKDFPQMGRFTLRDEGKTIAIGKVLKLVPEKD
# Protein cereblon/Eukaryotic peptide chain release factor GTP-binding subunit ERF3A (Homo sapiens), sequence (Q96SW2 whole entry, looked up): as the sequence (Q96SW2 whole entry partner) above
# Cytochrome P450 3A4, sequence (P08684 whole entry): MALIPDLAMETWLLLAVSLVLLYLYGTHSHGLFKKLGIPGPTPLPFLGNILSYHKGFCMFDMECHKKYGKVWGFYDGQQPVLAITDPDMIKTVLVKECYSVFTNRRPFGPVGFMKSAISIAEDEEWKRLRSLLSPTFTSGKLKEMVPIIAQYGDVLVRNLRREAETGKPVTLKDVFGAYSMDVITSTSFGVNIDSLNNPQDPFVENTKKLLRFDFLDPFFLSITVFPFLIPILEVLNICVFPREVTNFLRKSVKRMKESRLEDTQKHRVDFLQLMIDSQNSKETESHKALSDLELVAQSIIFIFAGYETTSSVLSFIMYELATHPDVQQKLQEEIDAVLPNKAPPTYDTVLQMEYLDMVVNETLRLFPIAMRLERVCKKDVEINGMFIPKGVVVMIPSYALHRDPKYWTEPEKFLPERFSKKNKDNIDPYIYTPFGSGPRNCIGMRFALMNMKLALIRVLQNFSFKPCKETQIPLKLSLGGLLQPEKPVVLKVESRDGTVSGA
# GTPase KRas, sequence (P01116 whole entry G12D): as the sequence (P01116 whole entry G12D) above
smiles,measurement,setting,value
C#Cc1c(F)ccc2cc(O)cc(-c3ncc4c(N5CC6CCC(C5)N6)nc(OCC5(CN6CCC7(CC6)CC(N6CCC(c8cc9c(cc8F)c(N8CCC(=O)NC8=O)nn9C)CC6)C7)CC5)nc4c3F)c12,half-life,[1],9.63 h
same,concentration at 6 h,[2],1040 ng/g
same,IC50,[3],10.6 nM
same,Activity,PK-59,Active
same,Emax,[4],89%
same,Activity,[5],inactive
same,Activity,[6],74%
same,inhibition (INH),Cytochrome P450 2C19,Not_active
same,IC50,[7],0.35 nM
same,Activity,A-427 [8],>30%
same,Activity,[9],inactive
same,IC50,GTPase KRas,6.34 nM
same,inhibition in vivo at 0.1 mg/kg,[10],81.4%
same,inhibition (INH),Cytochrome P450 3A4,Not_active
same,Activity,[11],11%
same,half-life at 1 µM,[12],165 h
same,Activity,GP2d,Active
same,IC50,[13],2.5 nM
same,Activity,HPAC,Active; Compound Showed Stronger Antiproliferative Activity Compared To Mrtx1133
same,half-life at 1 µM,[14],2.52 h
same,half-life at 1 µM,[15],8.88 h
same,Activity,[16],Non-toxic
same,Activity,A-427 [17],Active; Compound Showed Stronger Antiproliferative Activity Compared To Mrtx1133
same,half-life at 100 µM,[18],7.27 h
same,clearance,[19],39 mL/min/kg
same,AUC(0-t) at 24 h,[20],0.836 µM·h
same,CLint scaled at 1 µM,[21],16.6 mL/min/kg
same,clearance,[22],19.5 mL/min/kg
same,Vd,[23],15.8 L/kg
same,AUC(0-t) at 24 h,[24],0.531 µM·h
same,AUC(0-t) at 24 h,[25],0.397 µM·h
same,concentration at 168 h,[26],840 ng/g
same,Activity,PSN1,Weak_effect; Compound Showed Weaker Potency In Antiproliferative Activity Compared To Mrtx1133
